In brackets after ≈: the same amount, converted by molar mass.
What was measured:
E. coli K12 PBP3 = biological target: T1, E. coli K12 PBP3 (Escherichia coli, UniProt P0AD68); test: biochemical; assay type: binding
T1 construct: made in house
Outline: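 A. baumannii PBP2 (2.5 μM) and PBP3 (0.2 μM) were run in 25 mM Tris pH 8.0 buffer with Tween 20; E. coli PBP3 (1.5 μM) and N. gonorrhoeae PBP2 ([…]) in 50 mM Hepes pH 8.0 buffer.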

[1] = tested on: N. gonorrhoeae ATCC 49226; test: Liquid broth MIC in Fastidious broth; assay type: cell-based; details: Neisseria gonorrhoeae, ATCC49226; N. gonorrhoeae strain ATCC 49226; Fastidious broth; read-out: Minimum Inhibitory Concentration, N. gonorrhoeae ATCC 49226
Outline: (§1)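 Colonies were swabbed from chocolate agar after 24 h growth and standardised by optical density at 600 nm. Compounds were serially diluted twofold in Fastidious broth, and bacteria added to give 5×10^5 CFU/mL. After about 24 h at 36 °C in 5% CO2, the lowest concentration allowing under 10% growth was taken as MIC.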

N. gonorrhoeae FA1090 = test: Liquid broth MIC in Fastidious broth; assay type: cell-based; details: Neisseria gonorrhoeae; N. gonorrhoeae strain FA1090; Fastidious broth; read-out: Minimum Inhibitory Concentration, N. gonorrhoeae FA1090
Outline: as §1

N. gonorrhoeae H041 = test: Liquid broth MIC in Fastidious broth; assay type: cell-based; details: Neisseria gonorrhoeae, H041, read-out: Minimum Inhibitory Concentration, N. gonorrhoeae H041
Outline: (§2)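 Broth microdilution against gonococcal strains expressing mosaic PBP2, starting inoculum 5×10^5 CFU/mL in Fastidious broth. Incubation runs ~24 h at 36 °C under 5% CO2, with MIC scored visually at <10% of full growth.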

N. gonorrhoeae WHO G = test: Liquid broth MIC in Fastidious broth; assay type: cell-based; details: Neisseria gonorrhoeae; N. gonorrhoeae strain WHO G; Fastidious broth; read-out: Minimum Inhibitory Concentration, N. gonorrhoeae WHO G
Outline: as §1

N. gonorrhoeae WHO K = test: Liquid broth MIC in Fastidious broth; assay type: cell-based; details: Neisseria gonorrhoeae, read-out: Minimum Inhibitory Concentration, N. gonorrhoeae WHO K
Outline: as §2

N. gonorrhoeae WHO L = test: Liquid broth MIC in Fastidious broth; assay type: cell-based; details: Neisseria gonorrhoeae; N. gonorrhoeae strain WHO L; Fastidious broth; read-out: Minimum Inhibitory Concentration, N. gonorrhoeae WHO L
Outline: as §1

N. gonorrhoeae WHO Q = test: Liquid broth MIC in Fastidious broth; assay type: cell-based; details: Neisseria gonorrhoeae, read-out: Minimum Inhibitory Concentration, N. gonorrhoeae WHO Q
Outline: as §2

N. gonorrhoeae WHO Z = test: Liquid broth MIC in Fastidious broth; assay type: cell-based; details: Neisseria gonorrhoeae, read-out: Minimum Inhibitory Concentration, N. gonorrhoeae WHO Z
Outline: as §2

P. aeruginosa PBP3 = biological target: T2, P. aeruginosa PBP3 (Pseudomonas aeruginosa, UniProt G3XD46); test: Bocillin-FL fluorescence polarization competition binding assay, P. aeruginosa PBP3; details: fluorescence polarization competition binding assay using Bocillin-FL
T2 construct: made in house
T2 sequence (G3XD46 whole entry): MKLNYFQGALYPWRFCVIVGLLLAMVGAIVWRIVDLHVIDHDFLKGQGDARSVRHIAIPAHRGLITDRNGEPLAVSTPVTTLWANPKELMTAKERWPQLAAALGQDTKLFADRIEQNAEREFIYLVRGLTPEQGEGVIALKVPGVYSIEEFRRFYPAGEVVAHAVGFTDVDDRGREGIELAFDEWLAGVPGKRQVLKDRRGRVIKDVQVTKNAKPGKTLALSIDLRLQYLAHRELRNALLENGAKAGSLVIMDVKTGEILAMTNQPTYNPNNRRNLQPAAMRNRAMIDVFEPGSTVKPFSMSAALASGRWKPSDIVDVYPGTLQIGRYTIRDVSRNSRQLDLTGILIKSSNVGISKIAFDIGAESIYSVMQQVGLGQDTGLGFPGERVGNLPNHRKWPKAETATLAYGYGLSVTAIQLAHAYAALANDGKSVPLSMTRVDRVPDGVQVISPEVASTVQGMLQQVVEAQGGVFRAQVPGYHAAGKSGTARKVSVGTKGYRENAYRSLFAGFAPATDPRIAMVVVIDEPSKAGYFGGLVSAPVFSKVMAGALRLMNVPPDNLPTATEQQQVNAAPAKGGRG
Outline: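 Inhibitor competition with Bocillin-FL for P. aeruginosa PBP3 was followed by fluorescence polarization on a Cytation3 (BioTek) reader, using g-factor 0.96, 490 nm excitation and 520 nm emission. The enzyme was at 0.75 μM and the probe at 0.1 μM in Hepes/NaCl/glycerol buffer, 80 μl per well. FP was recorded immediately after probe addition for up to 60 minutes. Potency was expressed as EC50, the concentration that reduces bound probe by 50%.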

T1 sequence (P0AD68 1-577): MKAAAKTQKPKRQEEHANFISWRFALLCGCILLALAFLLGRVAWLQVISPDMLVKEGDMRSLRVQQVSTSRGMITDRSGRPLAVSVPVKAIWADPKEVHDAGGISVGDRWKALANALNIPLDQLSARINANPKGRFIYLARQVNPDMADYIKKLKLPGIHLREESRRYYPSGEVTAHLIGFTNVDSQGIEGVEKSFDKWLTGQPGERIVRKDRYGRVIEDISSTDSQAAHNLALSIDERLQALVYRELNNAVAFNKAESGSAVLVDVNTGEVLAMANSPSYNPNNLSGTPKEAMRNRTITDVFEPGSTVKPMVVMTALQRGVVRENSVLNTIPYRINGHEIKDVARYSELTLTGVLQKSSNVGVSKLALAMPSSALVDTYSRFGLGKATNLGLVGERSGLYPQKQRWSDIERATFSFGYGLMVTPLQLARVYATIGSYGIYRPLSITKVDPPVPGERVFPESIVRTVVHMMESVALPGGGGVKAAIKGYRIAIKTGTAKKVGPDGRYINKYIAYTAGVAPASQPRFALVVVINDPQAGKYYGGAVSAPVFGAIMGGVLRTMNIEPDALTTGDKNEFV

| Compound | EC50 (E. coli K12 PBP3) | MIC [1] | MIC (N. gonorrhoeae FA1090) | MIC (N. gonorrhoeae H041) | MIC (N. gonorrhoeae WHO G) | MIC (N. gonorrhoeae WHO K) | MIC (N. gonorrhoeae WHO L) | MIC (N. gonorrhoeae WHO Q) | MIC (N. gonorrhoeae WHO Z) | P. aeruginosa PBP3 Potency (P. aeruginosa PBP3) |
| --- | --- | --- | --- | --- | --- | --- | --- | --- | --- | --- |
| O=C(O)c1cccc2c1OB(O)[C@@H](NC(=O)C(NC(=O)N1CCN(CCF)C(=O)C1=O)c1c(F)cc(O)cc1F)C2 (mixture of isomers) [Example 119, (3R)-3-(2-(2,6-difluoro-4-hydroxyphenyl)-2-(4-(2-fluoroethyl)-2,3-dioxopiperazine-1-carboxamido)acetamido)-2-hydroxy-3,4-dihydro-2H-benzo[e][1,2]oxaborinine-8-carboxylic acid] | < 30 µM | 16 to 32 µg/mL (≈ 27.7 to 55.3 µM) | 0.25 to 0.5 µg/mL (≈ 0.432 to 0.865 µM) | > 64 µg/mL | 1 to 2 µg/mL (≈ 1.73 to 3.46 µM) | 16 to 32 µg/mL (≈ 27.7 to 55.3 µM) | 16 to 32 µg/mL (≈ 27.7 to 55.3 µM) | 16 to 32 µg/mL (≈ 27.7 to 55.3 µM) | 4 to 8 µg/mL (≈ 6.92 to 13.8 µM) | – |
| NCCN1CCN(C(=O)N[C@H](C(=O)N[C@H]2Cc3cccc(C(=O)O)c3OB2O)c2c(F)cc(O)cc2F)C(=O)C1=O (single isomer, unassigned) [Example 110] | 30 to 500 µM | > 64 µg/mL | 16 to 32 µg/mL (≈ 27.8 to 55.6 µM) | > 64 µg/mL | > 64 µg/mL | > 64 µg/mL | > 64 µg/mL | > 64 µg/mL | > 64 µg/mL | B (B represents a potency between 30 μM and 500 μM inclusive) |
| NCCN1CCN(C(=O)N[C@@H](C(=O)N[C@H]2Cc3cccc(C(=O)O)c3OB2O)c2c(F)cc(O)cc2F)C(=O)C1=O (single isomer, unassigned) [Example 111] | < 30 µM | 16 to 32 µg/mL (≈ 27.8 to 55.6 µM) | 1 to 2 µg/mL (≈ 1.74 to 3.48 µM) | > 64 µg/mL | 4 to 8 µg/mL (≈ 6.95 to 13.9 µM) | > 64 µg/mL | > 64 µg/mL | > 64 µg/mL | > 64 µg/mL | D (D represents a potency <10 μM) |
| NCCN1CCN(C(=O)N[C@@H](C(=O)N[C@H]2Cc3cccc(C(=O)O)c3OB2O)c2cccc(NS(N)(=O)=O)c2)C(=O)C1=O (single isomer, unassigned) [Example 114] | 30 to 500 µM | > 64 µg/mL | 4 to 8 µg/mL (≈ 6.48 to 13 µM) | > 64 µg/mL | 16 to 32 µg/mL (≈ 25.9 to 51.8 µM) | > 64 µg/mL | > 64 µg/mL | > 64 µg/mL | > 64 µg/mL | D (D represents a potency <10 μM) |
| NCCN1CCN(C(=O)N[C@H](C(=O)N[C@H]2Cc3cccc(C(=O)O)c3OB2O)c2cccc(NS(N)(=O)=O)c2)C(=O)C1=O (single isomer, unassigned) [Example 115] | 30 to 500 µM | > 64 µg/mL | 4 to 8 µg/mL (≈ 6.48 to 13 µM) | > 64 µg/mL | > 64 µg/mL | > 64 µg/mL | > 64 µg/mL | > 64 µg/mL | > 64 µg/mL | C (C represents a potency between 10 and 30 μM) |
| NC1(CN2CCN(C(=O)N[C@@H](C(=O)N[C@H]3Cc4cccc(C(=O)O)c4OB3O)c3c(F)cc(O)cc3F)C(=O)C2=O)CC1 (single isomer, unassigned) [Example 121] | < 30 µM | 16 to 32 µg/mL (≈ 26.6 to 53.2 µM) | 1 to 2 µg/mL (≈ 1.66 to 3.33 µM) | > 64 µg/mL | 16 to 32 µg/mL (≈ 26.6 to 53.2 µM) | > 64 µg/mL | > 64 µg/mL | > 64 µg/mL | > 64 µg/mL | D (D represents a potency <10 μM) |
| NC1(CN2CCN(C(=O)N[C@H](C(=O)N[C@H]3Cc4cccc(C(=O)O)c4OB3O)c3c(F)cc(O)cc3F)C(=O)C2=O)CC1 (single isomer, unassigned) [Example 122] | < 30 µM | > 64 µg/mL | 4 to 8 µg/mL (≈ 6.65 to 13.3 µM) | > 64 µg/mL | > 64 µg/mL | > 64 µg/mL | > 64 µg/mL | > 64 µg/mL | > 64 µg/mL | D (D represents a potency <10 μM) |
| CCN1CCN(C(=O)N[C@H](C(=O)N[C@H]2Cc3cccc(C(=O)O)c3OB2O)c2ccc(C(=O)O)cc2)C(=O)C1=O (single isomer, unassigned) [Example 123] | < 30 µM | 4 to 8 µg/mL (≈ 7.24 to 14.5 µM) | 0.25 to 0.5 µg/mL (≈ 0.453 to 0.905 µM) | 16 to 32 µg/mL (≈ 29 to 57.9 µM) | 1 to 2 µg/mL (≈ 1.81 to 3.62 µM) | 4 to 8 µg/mL (≈ 7.24 to 14.5 µM) | 16 to 32 µg/mL (≈ 29 to 57.9 µM) | 4 to 8 µg/mL (≈ 7.24 to 14.5 µM) | 1 to 2 µg/mL (≈ 1.81 to 3.62 µM) | D (D represents a potency <10 μM) |
| CCN1CCN(C(=O)N[C@@H](C(=O)N[C@H]2Cc3cccc(C(=O)O)c3OB2O)c2ccc(C(=O)O)cc2)C(=O)C1=O (single isomer, unassigned) [Example 124] | < 30 µM | 1 to 2 µg/mL (≈ 1.81 to 3.62 µM) | < 0.125 µg/mL | 4 to 8 µg/mL (≈ 7.24 to 14.5 µM) | 0.25 to 0.5 µg/mL (≈ 0.453 to 0.905 µM) | 4 to 8 µg/mL (≈ 7.24 to 14.5 µM) | 4 to 8 µg/mL (≈ 7.24 to 14.5 µM) | 1 to 2 µg/mL (≈ 1.81 to 3.62 µM) | 1 to 2 µg/mL (≈ 1.81 to 3.62 µM) | D (D represents a potency <10 μM) |
| CCN1CCN(C(=O)N[C@H](C(=O)N[C@H]2Cc3ccc(F)c(C(=O)O)c3OB2O)c2c(F)cc(O)c(O)c2Cl)C(=O)C1=O (single isomer, unassigned) [Example 125] | > 500 µM | > 64 µg/mL | > 64 µg/mL | > 64 µg/mL | > 64 µg/mL | > 64 µg/mL | > 64 µg/mL | > 64 µg/mL | > 64 µg/mL | A (A represents a potency of >500 μM) |
| O=C(O)c1cccc2c1OB(O)[C@@H](NC(=O)[C@H](NC(=O)N1CCN(CCF)C(=O)C1=O)c1c(F)cc(O)cc1F)C2 (single isomer, unassigned) [Example 126] | < 30 µM | 4 to 8 µg/mL (≈ 6.92 to 13.8 µM) | < 0.125 µg/mL | 16 to 32 µg/mL (≈ 27.7 to 55.3 µM) | 1 to 2 µg/mL (≈ 1.73 to 3.46 µM) | 16 to 32 µg/mL (≈ 27.7 to 55.3 µM) | 16 to 32 µg/mL (≈ 27.7 to 55.3 µM) | 4 to 8 µg/mL (≈ 6.92 to 13.8 µM) | 4 to 8 µg/mL (≈ 6.92 to 13.8 µM) | D (D represents a potency <10 μM) |
| NCCN1CCN(C(=O)N[C@@H](C(=O)N[C@H]2Cc3ccc(F)c(C(=O)O)c3OB2O)c2c(F)cc(O)cc2F)C(=O)C1=O (single isomer, unassigned) [Example 127] | < 30 µM | 16 to 32 µg/mL (≈ 27 to 53.9 µM) | 4 to 8 µg/mL (≈ 6.74 to 13.5 µM) | > 64 µg/mL | 16 to 32 µg/mL (≈ 27 to 53.9 µM) | > 64 µg/mL | > 64 µg/mL | > 64 µg/mL | > 64 µg/mL | D (D represents a potency <10 μM) |
| NCCN1CCN(C(=O)N[C@H](C(=O)N[C@H]2Cc3ccc(F)c(C(=O)O)c3OB2O)c2c(F)cc(O)cc2F)C(=O)C1=O (single isomer, unassigned) [Example 128] | 30 to 500 µM | > 64 µg/mL | 16 to 32 µg/mL (≈ 27 to 53.9 µM) | > 64 µg/mL | > 64 µg/mL | > 64 µg/mL | > 64 µg/mL | > 64 µg/mL | > 64 µg/mL | C (C represents a potency between 10 and 30 μM) |
| NCCN1CCN(C(=O)N[C@@H](C(=O)N[C@H]2Cc3cccc(C(=O)O)c3OB2O)c2cc(Cl)c(O)c(Cl)c2)C(=O)C1=O (single isomer, unassigned) [Example 166] | < 30 µM | 16 to 32 µg/mL (≈ 26.3 to 52.6 µM) | 0.25 to 0.5 µg/mL (≈ 0.411 to 0.822 µM) | > 64 µg/mL | 4 to 8 µg/mL (≈ 6.58 to 13.2 µM) | > 64 µg/mL | > 64 µg/mL | 16 to 32 µg/mL (≈ 26.3 to 52.6 µM) | 16 to 32 µg/mL (≈ 26.3 to 52.6 µM) | – |
| CCN1CCN(C(=O)NC(C(=O)N[C@H]2Cc3cccc(C(=O)O)c3OB2O)c2c(F)cc(N)cc2F)C(=O)C1=O (stereo partly drawn) [Example 181, (3R)-3-(2-(4-amino-2,6-difluorophenyl)-2-(4-ethyl-2,3-dioxopiperazine-1-carboxamido)acetamido)-2-hydroxy-3,4-dihydro-2H-benzo[e][1,2]oxaborinine-8-carboxylic acid] | < 30 µM | 4 to 8 µg/mL (≈ 7.15 to 14.3 µM) | 0.25 to 0.5 µg/mL (≈ 0.447 to 0.894 µM) | > 64 µg/mL | 1 to 2 µg/mL (≈ 1.79 to 3.58 µM) | 16 to 32 µg/mL (≈ 28.6 to 57.2 µM) | 16 to 32 µg/mL (≈ 28.6 to 57.2 µM) | 16 to 32 µg/mL (≈ 28.6 to 57.2 µM) | 16 to 32 µg/mL (≈ 28.6 to 57.2 µM) | – |

From patent US20230114728A1 (Venatorx Pharmaceuticals, Inc., priority 2019, published 2023)
